Molecular target: T1, Wee1 kinase domain (Homo sapiens, UniProt P30291)
T1 construct: Wee1 kinase domain was purchased from Carna (catalog #05-177); purchased Carna 05-177
Assay: Wee1 Kinase Biochemical Assay (ADP-Glo)
Settings: 1 nM Wee1 enzyme, 15 uM ATP, 4 hours at 25° C
Summary of the method: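 1 nM enzyme; 15 uM ATP; 2 ng/mL poly(Lys,Tyr 4:1); 40 mM Tris-HCl, 20 mM MgCl2, 0.1 mg/mL BSA, 2 mM DTT; 4 h, 25 °C; ADP-Glo; % inhibition vs DMSO and saturating positive-control wells.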

T1 sequence (P30291 299-569 limits assumed): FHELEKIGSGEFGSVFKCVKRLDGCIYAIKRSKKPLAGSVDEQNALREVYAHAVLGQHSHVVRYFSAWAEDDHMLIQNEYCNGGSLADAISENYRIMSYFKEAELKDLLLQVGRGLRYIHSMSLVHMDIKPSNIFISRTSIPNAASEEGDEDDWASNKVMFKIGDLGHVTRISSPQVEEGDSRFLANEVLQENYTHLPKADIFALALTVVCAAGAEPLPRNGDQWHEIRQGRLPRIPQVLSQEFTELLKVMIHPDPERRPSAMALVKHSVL

| Compound | IC50 [nM] |
| --- | --- |
| Cc1cc(Nc2ncc3c(n2)N(c2cccc(N=S(C)(C)=O)n2)C2CC(C)(C)OCC32C)cc(=O)n1C (single isomer, unassigned) [Example 816] | < 10 |
| CN1CCN(c2ccc(Nc3ncc4c(n3)N(c3ccc(=O)n(C)n3)[C@@H]3CC(C)(C)OC[C@]43C)cc2)CC1 (single isomer, unassigned) [Example 826] | < 10 |
| COCCN1CCC(n2ccc(Nc3ncc4c(n3)N(c3cccc(N=S(C)(C)=O)n3)[C@@H]3CC(C)(C)OC[C@]43C)cc2=O)CC1 (single isomer, unassigned) [Example 825] | < 10 |

Same assay, conditions: Wee1 kinase domain, 15 uM ATP, ADP-Glo

| Compound | IC50 [nM] |
| --- | --- |
| CN1Cc2cc(Nc3ncc4c(n3)N(c3cccc(N=S(C)(C)=O)n3)[C@H]3CC(C)(C)OC[C@@]43C)ccc2C(C)(C)C1 (single isomer, unassigned) [Example 136] | 10 to 100 |
| C[C@H]1COC(=O)N1c1cccc(N2c3nc(Nc4ccc(N5CCN(C)CC5)cc4)ncc3[C@@]3(C)COC(C)(C)C[C@@H]23)n1 (single isomer, unassigned) [Example 234] | 10 to 100 |
| CNCc1cccc(N2c3nc(Nc4ccc(C5CCOCC5)cc4)ncc3[C@]3(C)COC(C)(C)C[C@H]23)n1 (single isomer, unassigned) [Example 36] | 10 to 100 |
| C[C@H]1COC(=O)N1c1cccc(N2c3nc(Nc4ccc([C@@H]5CCNC5)nc4)ncc3[C@]3(C)COC(C)(C)C[C@H]23)n1 (single isomer, unassigned) [Example 256] | 10 to 100 |
| CNCc1cccc(N2c3nc(Nc4ccc([C@H]5CCCO5)cc4)ncc3[C@@]3(C)COC(C)(C)C[C@@H]23)n1 (single isomer, unassigned) [Example 60] | < 10 |
| Cc1cc(Nc2ncc3c(n2)N(c2cccc(N=S(C)(C)=O)n2)[C@H]2CC(C)(C)OC[C@@]32C)ccc1[C@@H]1CCN(C)C1 (single isomer, unassigned) [Example 146] | 10 to 100 |
| C[C@H]1COC(=O)N1c1cccc(N2c3nc(Nc4ccc(O[C@H]5CCN(C)C5)nc4)ncc3[C@]3(C)COC(C)(C)C[C@H]23)n1 (single isomer, unassigned) [Example 280] | 100 to 1000 |
| CN1CC(c2ccc(Nc3ncc4c(n3)N(c3cccc(N=S(C)(C)=O)n3)[C@H]3CC(C)(C)OC[C@@]43C)cc2F)C1 (single isomer, unassigned) [Example 185] | 100 to 1000 |
| CN1CCC[C@H](n2cc(Nc3ncc4c(n3)N(c3cccc(N=S(C)(C)=O)n3)[C@H]3CC(C)(C)OC[C@@]43C)cn2)C1 (single isomer, unassigned) [Example 200] | 10 to 100 |

Now from value to molecule:

| IC50 [nM] | Compound |
| --- | --- |
| 100 to 1000 | C[C@H]1COC(=O)N1c1cccc(N2c3nc(Nc4ccc(C(C)(C)C)nc4)ncc3[C@]3(C)COC(C)(C)C[C@H]23)n1 (single isomer, unassigned) [Example 300] |
| < 10 | Cc1cc(Nc2ncc3c(n2)N(c2cccc(N4C(=O)OC[C@@H]4C)n2)[C@H]2CC(C)(C)OC[C@@]32C)ccc1C1CCN(C)CC1 (single isomer, unassigned) [Example 239] |
| 10 to 100 | C[C@H]1COC(=O)N1c1cccc(N2c3nc(Nc4ccc(C5CCN(C)CC5)cc4)ncc3[C@]3(C)COC(C)(C)C[C@H]23)n1 (single isomer, unassigned) [Example 250] |
| < 10 | CC1(C)C[C@H]2N(c3cccc(N=S(C)(C)=O)n3)c3nc(Nc4ccc5ncnn5c4)ncc3[C@@]2(C)CO1 (single isomer, unassigned) [Example 384] |
| 10 to 100 | C[C@H]1COC(=O)N1c1cccc(N2c3nc(Nc4ccc(O[C@@H]5CCNC5)cc4)ncc3[C@]3(C)COC(C)(C)C[C@H]23)n1 (single isomer, unassigned) [Example 326] |
| 100 to 1000 | CNC(=O)c1ccc(Nc2ncc3c(n2)N(c2cccc(N=S(C)(C)=O)n2)[C@H]2CC(C)(C)OC[C@@]32C)cc1 (single isomer, unassigned) [Example 116] |
| 10 to 100 | C[C@H]1COC(=O)N1c1cccc(N2c3nc(Nc4ccc([C@]5(C)CCN(C)C5)cc4)ncc3[C@]3(C)COC(C)(C)C[C@H]23)n1 (single isomer, unassigned) [Example 350] |
| 10 to 100 | CC1(C)C[C@@H]2N(c3cccc(N=S(C)(C)=O)n3)c3nc(Nc4ccc([C@H]5CCNC5)cc4)ncc3[C@]2(C)CO1 (single isomer, unassigned) [Example 138] |

Same assay, conditions: class symbols; 1 nM Wee1 enzyme, 15 uM ATP, 4 hours at 25° C.

| Compound | IC50 [nM] |
| --- | --- |
| CN(C)Cc1cccc(N2c3nc(Nc4ccc(C(C)(C)C(=O)O)cc4)ncc3[C@]3(C)COC(C)(C)C[C@H]23)n1 [Example 610, 2-(4-(((4bS,8aS)-9-(6-((dimethylamino)methyl)pyridin-2-yl)-4b,7,7-trimethyl-4b,5,7,8,8a,9-hexahydropyrano[3′,4′:4,5]pyrrolo[2,3-d]pyrimidin-2-yl)amino)phenyl)-2-methylpropanoic acid] | ≥ 1000 |
| CN1C[C@@H]2CN(c3ccc(Nc4ncc5c(n4)N(c4cccc(N6CCOC6=O)n4)[C@H]4CC(C)(C)OC[C@@]54C)cc3)C[C@@H]2C1 [Example 693, 3-(6-((4bS,8aS)-46,7,7-trimethyl-2-((4-((3aR,6aS)-5-methylhexahydropyrrolo[3,4-c]pyrrol-2(1H)-yl)phenyl)amino)-4b,7,8,8a-tetrahydropyrano[3′,4′:4,5]pyrrolo[2,3-d]pyrimidin-9(5H)-yl)pyridin-2-yl)oxazolidin-2-one] | 100 to 1000 |
| CN1CCC(c2ccc(Nc3ncc4c(n3)N(c3cccc(N=S(C)(C)=O)c3)[C@H]3CC(C)(C)OC[C@@]43C)cn2)CC1 [Example 709, dimethyl((3-((4bS,8aS)-4b,7,7-trimethyl-2-((6-(1-methylpiperidin-4-yl)pyridin-3-yl)amino)-4b,7,8,8a-tetrahydropyrano[3′,4′:4,5]pyrrolo[2,3-d]pyrimidin-9(5H)-yl)phenyl)imino)-16-sulfanone] | ≥ 1000 |
| CN1C[C@@H]2C[C@H]1CN2c1ccc(Nc2ncc3c(n2)N(c2cccc(C(C)(C)O)n2)[C@H]2CC(C)(C)OC[C@@]32C)cc1 (single isomer, unassigned) [Example 415] | 100 to 1000 |
| CNCc1cccc(N2c3nc(Nc4ccc(N5CCN(C)C(=O)C5)cc4)ncc3[C@]3(C)COC(C)(C)C[C@H]23)n1 (single isomer, unassigned) [Example 449] | 10 to 100 |
| CN1CC[C@@H](n2ccc(Nc3ncc4c(n3)N(c3cccc(N=S(C)(C)=O)n3)[C@@H]3CC(C)(C)OC[C@]43C)cc2=O)C1 [Example 804, 4-(((4bR,8aR)-9-(6-((dimethyl(oxo)-16-sulfaneylidene)amino)pyridin-2-yl)-4b,7,7-trimethyl-4b,5,7,8,8a,9-hexahydropyrano[3′,4′:4,5]pyrrolo[2,3-d]pyrimidin-2-yl)amino)-1-((R)-1-methylpyrrolidin-3-yl)pyridin-2(1H)-one] | < 10 |
| CNCc1cccc(N2c3nc(Nc4ccc(-n5ccnc5)c(F)c4)ncc3[C@]3(C)COC(C)(C)C[C@H]23)n1 (single isomer, unassigned) [Example 465] | 100 to 1000 |

Other lines, results leading:

| IC50 [nM] | Compound |
| --- | --- |
| 10 to 100 | CC1(C)C[C@H]2N(c3cccc(C(C)(C)O)n3)c3nc(Nc4ccc(O[C@@H]5CCNC5)cc4)ncc3[C@@]2(C)CO1 (single isomer, unassigned) [Example 418] |
| 100 to 1000 | CN1C[C@H]2C[C@@H]1CN2c1ccc(Nc2ncc3c(n2)N(c2cccc(C(C)(C)O)n2)[C@H]2CC(C)(C)OC[C@@]32C)cc1F (single isomer, unassigned) [Example 428] |
| 10 to 100 | CNCc1cccc(N2c3nc(Nc4cnnc(C)c4)ncc3[C@@]3(C)COC(C)(C)C[C@@H]23)n1 (single isomer, unassigned) [Example 478] |
| 100 to 1000 | CN1C[C@@H]2C[C@H]1CN2c1ccc(Nc2ncc3c(n2)N(c2cccc(N4CCOC4=O)n2)[C@H]2CC(C)(C)OC[C@@]32C)cc1 (single isomer, unassigned) [Example 594] |
| 10 to 100 | CC1(C)C[C@@H]2N(c3cccc([C@H]4COCCN4)n3)c3nc(Nc4ccc(N5CCOCC5)cc4)ncc3[C@]2(C)CO1 [Example 732, (4bS,8aS)-4b,7,7-trimethyl-9-(6-((S)-morpholin-3-yl)pyridin-2-yl)-N-(4-morpholinophenyl)-4b,5,7,8,8a,9-hexahydropyrano[3′,4′:4,5]pyrrolo[2,3-d]pyrimidin-2-amine] |
| 10 to 100 | CN1CC[C@H]2CN(c3ccc(Nc4ncc5c(n4)N(c4cccc(C(C)(C)O)n4)[C@H]4CC(C)(C)OC[C@@]54C)cc3)C[C@H]21 (single isomer, unassigned) [Example 440] |
| < 10 | CN[C@H](C)c1cc(C)nc(N2c3nc(Nc4ccc(N5CCOCC5)cc4)ncc3[C@@]3(C)COC(C)(C)C[C@@H]23)c1 (single isomer, unassigned) [Example 557] |
| < 10 | CN1C[C@@H]2CN(c3ccc(Nc4ncc5c(n4)N(c4ccccn4)[C@@H]4CC(C)(C)OC[C@]54C)cc3)C[C@@H]2C1 (single isomer, unassigned) [Example 803] |
| 100 to 1000 | CNCc1cccc(N2c3nc(Nc4ccc(N5CCOCC5)cc4)ncc3[C@]3(C)COCC[C@H]23)n1 (single isomer, unassigned) [Example 573] |
| < 10 | CC1(C)C[C@H]2N(c3ccccn3)c3nc(Nc4ccc(N5CCN6CC[C@@H]5C6)cc4)ncc3[C@@]2(C)CO1 [Example 808, (4bR,8aR)-N-(4-((5R)-1,4-diazabicyclo[3.2.1]octan-4-yl)phenyl)-4b,7,7-trimethyl-9-(pyridin-2-yl)-4b,5,7,8,8a,9-hexahydropyrano[3′,4′:4,5]pyrrolo[2,3-d]pyrimidin-2-amine] |
| 10 to 100 | CN1CC[C@@H](Oc2ccc(Nc3ncc4c(n3)N(c3cccc(N5CCCC5=O)n3)[C@H]3CC(C)(C)OC[C@@]43C)cc2)C1 [Example 627, 1-(6-((4bS,8aS)-4b,7,7-trimethyl-2-((4-(((R)-1-methylpyrrolidin-3-yl)oxy)phenyl)amino)-4b,7,8,8a-tetrahydropyrano[3′,4′:4,5]pyrrolo[2,3-d]pyrimidin-9(5H)-yl)pyridin-2-yl)pyrrolidin-2-one] |
